Test results published in the supplement of paper PMC10627819.

Key:
B. subtilis 168 [1] = test: fitness (endpoint OD595 vs no drug) (fraction); higher = more growth
Method in brief: (§1)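 With the first reading as background, OD595 was measured every 30 min for 14 h in 384-well plates kept at 37 °C and inoculated at OD595 0.01. TSB, LB Lennox or CY was the medium. Fitness is the optical density at the transition into stationary phase divided by the robust mean of no-drug control wells, with a cap of 1.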

S. pneumoniae D39V [2] = test: as above
Method in brief: as §1

B. subtilis 168 [3] = test: Bliss interaction score (quartile over a dose matrix) (fitness difference); higher = more antagonism (negative = synergy)
Method in brief: (§2)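 Quartiles summarise the Bliss score over technical, biological and donor/recipient replicates, where the score is observed minus expected fitness under a product model. Expected fitness uses single-drug values inferred from combination data. Fitness is OD595 at entry into stationary phase over the plate's robust no-drug mean, capped at 1.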

S. aureus DSM 20231 = test: as above
Method in brief: as §2

S. aureus Newman = test: as above
Method in brief: as §2

S. pneumoniae D39V [4] = test: as above
Method in brief: as §2
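Wherever Bliss interaction score (quartile over a dose matrix) is given: first quartile when negative (synergy) and third quartile when positive (antagonism).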

C[C@H]1COc2c(N3CCN(C)CC3)c(F)cc3c(=O)c(C(=O)O)cn1c23 [Levofloxacin] + CN(N=O)C(=O)N[C@@H](C=O)[C@@H](O)[C@H](O)[C@H](O)CO [Streptozotocin]
fitness, one replicate
Settings	first compound 0.001 µg/mL	first compound 0.002 µg/mL	first compound 0.0039 µg/mL	first compound 0.0312 µg/mL	first compound 0.0625 µg/mL	first compound 0.125 µg/mL	first compound 0.2 µg/mL	first compound 0.4 µg/mL	first compound 0.8 µg/mL
B. subtilis 168 [1], partner 0.15 µg/mL	0.98	0.923	0.934	0.0317	0.0292	0.0367	–	–	–
B. subtilis 168 [1], partner 0.3 µg/mL	0.96	0.948	0.886	0.0288	0.0412	0.0451	–	–	–
B. subtilis 168 [1], partner 0.6 µg/mL	≥ 1	≥ 1	0.979	0.025	0.0304	0.0177	–	–	–
S. pneumoniae D39V [2], partner 1.2 µg/mL	–	–	–	–	–	–	0.925	0.759	0.259
S. pneumoniae D39V [2], partner 2.4 µg/mL	–	–	–	–	–	–	0.909	0.802	0.302
S. pneumoniae D39V [2], partner 4.8 µg/mL	–	–	–	–	–	–	0.823	0.603	0.0669

fitness, S. pneumoniae D39V [2]
Settings	first compound 0.1725 µg/mL	first compound 0.345 µg/mL	first compound 0.69 µg/mL
partner 1.2 µg/mL	0.938	0.816	0.362
partner 2.4 µg/mL	0.936	0.845	0.398
partner 4.8 µg/mL	0.952	0.841	0.44

Settings	Bliss interaction score
B. subtilis 168 [3]	0.0603
S. aureus DSM 20231	-0.0228
S. aureus Newman	-0.102
S. pneumoniae D39V [4]	-0.0624

C[C@H]1COc2c(N3CCN(C)CC3)c(F)cc3c(=O)c(C(=O)O)cn1c23 [Levofloxacin] + CN[C@@H]1[C@H](O)[C@H](NC)[C@H]2O[C@@]3(O)C(=O)C[C@@H](C)O[C@H]3O[C@@H]2[C@H]1O [Spectinomycin]
fitness, one replicate
Settings	first compound 0.001 µg/mL	first compound 0.002 µg/mL	first compound 0.0039 µg/mL	first compound 0.2 µg/mL	first compound 0.4 µg/mL	first compound 0.8 µg/mL
B. subtilis 168 [1], partner 2 µg/mL	0.986	0.966	0.988	–	–	–
B. subtilis 168 [1], partner 4 µg/mL	0.955	0.888	≥ 1	–	–	–
B. subtilis 168 [1], partner 8 µg/mL	0.99	0.912	≥ 1	–	–	–
S. pneumoniae D39V [2], partner 4 µg/mL	–	–	–	0.96	0.868	0.446
S. pneumoniae D39V [2], partner 8 µg/mL	–	–	–	0.9	0.804	0.508

fitness
Settings	first compound 0.0312 µg/mL	first compound 0.0625 µg/mL	first compound 0.125 µg/mL	first compound 0.1725 µg/mL	first compound 0.345 µg/mL	first compound 0.69 µg/mL
B. subtilis 168 [1], partner 2 µg/mL	0.036	0.0431	0.0402	–	–	–
B. subtilis 168 [1], partner 4 µg/mL	0.0347	0.0352	0.0401	–	–	–
B. subtilis 168 [1], partner 8 µg/mL	0.0234	0.0342	0.0261	–	–	–
S. pneumoniae D39V [2], partner 4 µg/mL	–	–	–	0.875	0.808	0.41
S. pneumoniae D39V [2], partner 8 µg/mL	–	–	–	0.928	0.816	0.439
S. pneumoniae D39V [2], partner 16 µg/mL	–	–	–	0.835	0.737	0.396

Settings	Bliss interaction score
B. subtilis 168 [3]	-0.0192
S. aureus DSM 20231	0.0353
S. aureus Newman	-0.0582
S. pneumoniae D39V [4]	-0.0643

C[C@H]1COc2c(N3CCN(C)CC3)c(F)cc3c(=O)c(C(=O)O)cn1c23 [Levofloxacin] + CN[C@@H]1[C@H](O[C@H]2[C@H](O[C@H]3[C@H](O)[C@@H](O)[C@H](N=C(N)N)[C@@H](O)[C@@H]3N=C(N)N)O[C@@H](C)[C@]2(O)C=O)O[C@@H](CO)[C@H](O)[C@H]1O [Streptomycin]
fitness, one replicate
Settings	first compound 0.001 µg/mL	first compound 0.002 µg/mL	first compound 0.0039 µg/mL	first compound 0.2 µg/mL	first compound 0.4 µg/mL	first compound 0.8 µg/mL
B. subtilis 168 [1], partner 2 µg/mL	0.963	0.952	0.932	–	–	–
B. subtilis 168 [1], partner 4 µg/mL	≥ 1	0.737	0.832	–	–	–
B. subtilis 168 [1], partner 8 µg/mL	0.252	0.0282	0.047	–	–	–
S. pneumoniae D39V [2], partner 2 µg/mL	–	–	–	0.955	0.855	0.346
S. pneumoniae D39V [2], partner 16 µg/mL	–	–	–	0.718	0.602	0.208

fitness
Settings	partner 2 µg/mL	partner 4 µg/mL	partner 8 µg/mL
B. subtilis 168 [1], first compound 0.0312 µg/mL	0.0408	0.0413	0.0242
B. subtilis 168 [1], first compound 0.0625 µg/mL	0.0475	0.0546	0.033
B. subtilis 168 [1], first compound 0.125 µg/mL	0.0446	0.0475	0.0333
S. pneumoniae D39V [2], first compound 0.1725 µg/mL	0.942	0.923	0.927
S. pneumoniae D39V [2], first compound 0.2 µg/mL	–	0.9	0.798
S. pneumoniae D39V [2], first compound 0.345 µg/mL	0.817	0.812	0.788
S. pneumoniae D39V [2], first compound 0.4 µg/mL	–	0.806	0.704
S. pneumoniae D39V [2], first compound 0.69 µg/mL	0.316	0.422	0.445
S. pneumoniae D39V [2], first compound 0.8 µg/mL	–	0.307	0.293

Settings	Bliss interaction score
B. subtilis 168 [3]	0.0365
S. aureus DSM 20231	-0.0487
S. aureus Newman	0.0694
S. pneumoniae D39V [4]	-0.0992
